Legend:
Format in all cases: cell-based
[1] = target: T1, EGFR L858R (BaF3-L858R cells) (Homo sapiens, UniProt P00533, L858R); experiment: Cell degradation of EGFR, HTRF assay, BaF3-L858R cells; conditions: 16 h treatment; for DC50: EGFR degradation; for Dmax: maximum percentage of degradation
T1 construct: host or cells: BaF3
In short: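 BaF3-L858R cells treated 16 h at 37° C, 5% CO2 with compound (top 10 uM final, 5-fold, 8 doses, 0.1% DMSO). DC50 from four-parameter fit; Dmax is maximum percent degradation.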

[2] = target: T2, EGFR-L858R/C797S (H1975-clone #8 cells) (Homo sapiens, UniProt P00533, C797S/L858R); experiment: Cell degradation of EGFR, HTRF assay, H1975-clone#8 (L858R/C797S) cells; conditions: 16 h treatment; for DC50: EGFR degradation; for Dmax: maximum percentage of degradation
T2 construct: expressed in transfected cells; host or cells: H1975 (endogenous EGFR knocked out, clone #8)

[3] = target: T3, p-EGFR L858R (BaF3-L858R cells) (Homo sapiens, UniProt P00533, L858R); experiment: Cell p-EGFR inhibition assay, HTRF, BaF3-L858R cells; conditions: 16 h treatment; for Imax (%): maximum percentage of pEGFR inhibition; for IC50: pEGFR inhibition
T3 construct: host or cells: BaF3
In short: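 BaF3-L858R cells treated 16 h at 37 °C, 5% CO2 with compound from 10 uM top, 5-fold dilutions, 8 doses, in 0.1% DMSO medium. Lysates read overnight by HTRF p-EGFR antibodies; IC50 fitted to four-parameter curve against DMSO high control.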

[4] = target: p-EGFR Del19/C797S (H1975-clone #23 cells) (Homo sapiens, UniProt P00533); experiment: Cell p-EGFR inhibition assay, HTRF, H1975-clone#23 (DEL19/C797S) cells; conditions: 16 h treatment; for Imax (%): maximum percentage of pEGFR inhibition; for IC50: pEGFR inhibition
In short: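 Phospho-EGFR read by overnight HTRF on lysates, normalized to DMSO-treated high control; IC50, Hill slope and Imax fitted. Compounds were applied for 16 h (10 uM top, 5-fold steps, 8 doses) to an H1975 single clone carrying only exogenous Del19/C797S EGFR after sgRNA knockout of endogenous copies.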

Row | SMILES | DC50 [1] | Dmax [1] | DC50 [2] | Dmax [2] | Imax (%) [3] | IC50 [3] | Imax (%) [4] | IC50 [4]
1 | COC[C@@H]1CN(c2ccc3c(c2)N2CC4CC[C@H](COc5c(c(C)nn5C)-c5cc(cc(C)n5)C(=O)/N=C/2N3)C4)CCN1C1CCN(c2cc(F)c([C@H]3CCC(=O)NC3=O)c(F)c2)CC1 [Example 80, (R)-3-(2,6-difluoro-4-(4-((S)-2-(methoxymethyl)-4-((7R,7^3S,E)-1^1,1^3,2^6-trimethyl-3-oxo-5^2,5^3-dihydro-1^1H,5^1H-9-oxa-4-aza-5(2,1)-benzo[d]imidazola-2(2,4)-pyridina-1(4,5)-pyrazola-7(1,3)-cyclopentanacyclononaphane-5^6-yl)piperazin-1-yl)piperidin-1-yl)phenyl)piperidine-2,6-dione] | 1.73 nM | 88.1% | 5.24 nM | 82.4% | 91.7% | 3.8 nM | 99.9% | 1.6 nM
2 | Cc1cc2cc(n1)-c1c(C)nn(C)c1OC[C@H]1CCC(C1)CN1/C(=N/C2=O)Nc2ccc(N3CCN([C@@H]4CCN(c5cc(F)c(C6CCC(=O)NC6=O)nc5C)C[C@@H]4F)CC3)cc21 (stereo partly drawn) [Example 82, 3-(3-fluoro-5-((3S,4R)-3-fluoro-4-(4-((7^1R,7^3S,E)-1^1,1^3,2^6-trimethyl-3-oxo-5^2,5^3-dihydro-1^1H,5^1H-9-oxa-4-aza-5(2,1)-benzo[d]imidazola-2(2,4)-pyridina-1(4,5)-pyrazola-7(1,3)-cyclopentanacyclononaphane-5^6-yl)piperazin-1-yl)piperidin-1-yl)-6-methylpyridin-2-yl)piperidine-2,6-dione] | 0.31 nM | 74.1% | 0.8 nM | 89.2% | 91.9% | 3.1 nM | 101.1% | 1.1 nM
3 | Cc1cc2cc(n1)-c1cnn(C)c1OC[C@H]1CCC(C1)CN1/C(=N/C2=O)Nc2ccc(N3CCN([C@H]4CCN(c5ccc(C6CCC(=O)NC6=O)nc5C)CC4(F)F)CC3)cc21 (stereo partly drawn) [Example 83, 3-(5-((S)-4-(4-((7^1R,7^3S,E)-1^1,2^6-dimethyl-3-oxo-5^2,5^3-dihydro-1^1H,5^1H-9-oxa-4-aza-5(2,1)-benzo[d]imidazola-2(2,4)-pyridina-1(4,5)-pyrazola-7(1,3)-cyclopentanacyclononaphane-5^6-yl)piperazin-1-yl)-3,3-difluoropiperidin-1-yl)-6-methylpyridin-2-yl)piperidine-2,6-dione] | 4.08 nM | 69.1% | 5.64 nM | 81.8% | 96.5% | 18 nM | 100.7% | 1 nM
4 | COC[C@@H]1CN(c2ccc3c(c2)N2CC4CC[C@H](COc5c(c(C(F)F)nn5C)-c5cc(cc(C)n5)C(=O)/N=C/2N3)C4)CCN1C1CCN(c2cc(F)c([C@H]3CCC(=O)NC3=O)c(F)c2)CC1 [Example 85, (R)-3-(4-(4-((S)-4-((7^1R,7^3S,E)-1^3-(difluoromethyl)-1^1,2^6-dimethyl-3-oxo-5^2,5^3-dihydro-1^1H,5^1H-9-oxa-4-aza-5(2,1)-benzo[d]imidazola-2(2,4)-pyridina-1(4,5)-pyrazola-7(1,3)-cyclopentanacyclononaphane-5^6-yl)-2-(methoxymethyl)piperazin-1-yl)piperidin-1-yl)-2,6-difluorophenyl)piperidine-2,6-dione] | 4.23 nM | 78% | 4.91 nM | 83% | 97.5% | 11.6 nM | 99.7% | 3.1 nM

— patent US20240425523A1, “Compounds for the Degradation of EGFR Kinase” (Beigene Switzerland GMBH, priority 2023, published 2024)
